# Legend:
# CDK2 = target: T1, CDK2 (Homo sapiens, UniProt P24941); assay: CDK protein degradation activity (Western blotting), CDK2; format: cell-based; conditions: MDA-MB-231 cells, 16 hours, Western blot
# T1 construct: endogenous in cells; host or cells: MDA-MB-231
# How it was run: (§1)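 MDA-MB-231 cells were treated with compound at final concentrations of 100 nM, 1 μM and 10 μM, or DMSO vehicle, for 16 h. Lysates were resolved by SDS-PAGE and immunoblotted for CDK2, CDK9 and tubulin, with band intensities quantified densitometrically.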
# CDK9 = target: T2, CDK9 (Homo sapiens, UniProt P50750); assay: CDK protein degradation activity (Western blotting), CDK9; format: cell-based; conditions: MDA-MB-231 cells, 16 hours, Western blot
# T2 construct: endogenous in cells; host or cells: MDA-MB-231
# How it was run: as §1
# T2 sequence (P50750 whole entry): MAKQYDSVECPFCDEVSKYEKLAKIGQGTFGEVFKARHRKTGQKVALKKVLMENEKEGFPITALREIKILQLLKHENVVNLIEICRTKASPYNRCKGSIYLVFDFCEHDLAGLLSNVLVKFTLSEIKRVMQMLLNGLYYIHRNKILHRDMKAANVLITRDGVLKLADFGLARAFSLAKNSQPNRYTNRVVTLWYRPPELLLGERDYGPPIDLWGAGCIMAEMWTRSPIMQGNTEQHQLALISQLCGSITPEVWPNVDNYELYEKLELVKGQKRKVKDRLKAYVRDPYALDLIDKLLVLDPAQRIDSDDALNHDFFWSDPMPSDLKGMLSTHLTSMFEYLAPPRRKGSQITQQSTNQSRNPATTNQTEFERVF
smiles,measurement,setting,value
"O=C1CC[C@H](N2C(=O)c3ccc(N4CC(C(=O)N5CCC(CN6CCN(c7ccc(Nc8ncnc9c8ncn9C8CC(NC(=O)c9cccc(Cl)n9)C8)cc7)CC6)CC5)C4)cc3C2=O)C(=O)N1 (stereo partly drawn) [Compound 451, 6-chloro-N-((1s,3s)-3-(6-((4-(4-((1-(1-(2-(2,6-dioxopiperidin-3-yl)-1,3-dioxoisoindolin-5-yl)azetidin-3-carbonyl)piperidin-4-yl)methyl)piperazin-1-yl)phenyl)amino)-9H-purin-9-yl)cyclobutyl)picolinamide]",Enzyme degradation CDK2 (% remaining) @ 0.1 μM,CDK2,50%
same,Enzyme degradation CDK2 (% remaining) @ 1 μM,CDK2,30%
same,Enzyme degradation CDK2 (% remaining) @ 10 μM,CDK2,30%
same,Enzyme degradation CDK9 (% remaining) @ 0.1 μM,CDK9,0/0/0%
same,Enzyme degradation CDK9 (% remaining) @ 1 μM,CDK9,0/0/0%
same,Enzyme degradation CDK9 (% remaining) @ 10 μM,CDK9,0/0/0%
"O=C1CCC(N2C(=O)c3ccc(N4CCC(C(=O)N5CCC(CN6CCN(c7ccc(Nc8ncnc9c8ncn9[C@H]8C[C@@H](NC(=O)c9cccc(Cl)n9)C8)cc7)CC6)CC5)CC4)cc3C2=O)C(=O)N1 (stereo partly drawn) [Compound 452, 6-chloro-N-((1s,3s)-3-(6-((4-(4-((1-(1-(2-(2,6-dioxopiperidin-3-yl)-1,3-dioxoisoindolin-5-yl)piperidin-4-carbonyl)piperidin-4-yl)methyl)piperazin-1-yl)phenyl)amino)-9H-purin-9-yl)cyclobutyl)picolinamide]",Enzyme degradation CDK2 (% remaining) @ 0.1 μM,CDK2,30/30/30%
same,Enzyme degradation CDK2 (% remaining) @ 1 μM,CDK2,30/30/30%
same,Enzyme degradation CDK2 (% remaining) @ 10 μM,CDK2,30/30/30%
same,Enzyme degradation CDK9 (% remaining) @ 0.1 μM,CDK9,0/0/0%
same,Enzyme degradation CDK9 (% remaining) @ 1 μM,CDK9,0/0/0%
same,Enzyme degradation CDK9 (% remaining) @ 10 μM,CDK9,0/0/0%
"O=C1CC[C@H](N2C(=O)c3cc(F)c(N4CCC(C(=O)N5CCC(CN6CCN(c7ccc(Nc8ncnc9c8ncn9C8CC(NC(=O)c9cccc(Cl)n9)C8)cc7)CC6)CC5)CC4)cc3C2=O)C(=O)N1 (stereo partly drawn) [Compound 453, 6-chloro-N-((1s,3s)-3-(6-((4-(4-((1-(1-(2-(2,6-dioxopiperidin-3-yl)-6-fluoro-1,3-dioxoisoindolin-5-yl)piperidin-4-carbonyl)piperidin-4-yl)methyl)piperazin-1-yl)phenyl)amino)-9H-purin-9-yl)cyclobutyl)picolinamide]",Enzyme degradation CDK2 (% remaining) @ 0.1 μM,CDK2,20%
same,Enzyme degradation CDK2 (% remaining) @ 1 μM,CDK2,20%
same,Enzyme degradation CDK2 (% remaining) @ 10 μM,CDK2,30%
same,Enzyme degradation CDK9 (% remaining) @ 0.1 μM,CDK9,0/0/0%
same,Enzyme degradation CDK9 (% remaining) @ 1 μM,CDK9,0/0/0%
same,Enzyme degradation CDK9 (% remaining) @ 10 μM,CDK9,0/0/0%
"N#Cc1cccc(C(=O)NC2CC(n3cnc4c(Nc5ccc(N6CCN(CC7CCN(C(=O)C8CN(c9ccc%10c(c9)C(=O)N([C@H]9CCC(=O)NC9=O)C%10=O)C8)CC7)CC6)cc5)ncnc43)C2)n1 (stereo partly drawn) [Compound 454, 6-cyano-N-((1s,3s)-3-(6-((4-(4-((1-(1-(2-(2,6-dioxopiperidin-3-yl)-1,3-dioxoisoindolin-5-yl)azetidin-3-carbonyl)piperidin-4-yl)methyl)piperazin-1-yl)phenyl)amino)-9H-purin-9-yl)cyclobutyl)picolinamide]",Enzyme degradation CDK2 (% remaining) @ 0.1 μM,CDK2,30%
same,Enzyme degradation CDK2 (% remaining) @ 1 μM,CDK2,20%
same,Enzyme degradation CDK2 (% remaining) @ 10 μM,CDK2,10%
same,Enzyme degradation CDK9 (% remaining) @ 0.1 μM,CDK9,0/0/0%
same,Enzyme degradation CDK9 (% remaining) @ 1 μM,CDK9,0/0/0%
same,Enzyme degradation CDK9 (% remaining) @ 10 μM,CDK9,0/0/0%
"N#Cc1cccc(C(=O)N[C@H]2C[C@@H](n3cnc4c(Nc5ccc(N6CCN(CC7CCN(C(=O)C8CCN(c9ccc%10c(c9)C(=O)N(C9CCC(=O)NC9=O)C%10=O)CC8)CC7)CC6)cc5)ncnc43)C2)n1 (stereo partly drawn) [Compound 455, 6-cyano-N-((1s,3s)-3-(6-((4-(4-((1-(1-(2-(2,6-dioxopiperidin-3-yl)-1,3-dioxoisoindolin-5-yl)piperidin-4-carbonyl)piperidin-4-yl)methyl)piperazin-1-yl)phenyl)amino)-9H-purin-9-yl)cyclobutyl)picolinamide]",Enzyme degradation CDK2 (% remaining) @ 0.1 μM,CDK2,30%
same,Enzyme degradation CDK2 (% remaining) @ 1 μM,CDK2,20%
same,Enzyme degradation CDK2 (% remaining) @ 10 μM,CDK2,20%
same,Enzyme degradation CDK9 (% remaining) @ 0.1 μM,CDK9,0/0/0%
same,Enzyme degradation CDK9 (% remaining) @ 1 μM,CDK9,0/0/0%
same,Enzyme degradation CDK9 (% remaining) @ 10 μM,CDK9,0/0/0%
"O=C1CC[C@H](N2C(=O)c3cc(F)c(N4CCC(C(=O)N5CCC(CN6CCN(c7ccc(Nc8ncnc9c8ncn9C8CC(NC(=O)Cc9ccccc9)C8)cc7)CC6)CC5)CC4)cc3C2=O)C(=O)N1 (stereo partly drawn) [Compound 456, N-((1s,3s)-3-(6-((4-(4-((1-(1-(2-(2,6-dioxopiperidin-3-yl)-6-fluoro-1,3-dioxoisoindolin-5-yl)piperidin-4-carbonyl)piperidin-4-yl)methyl)piperazin-1-yl)phenyl)amino)-9H-purin-9-yl)cyclobutyl)-2-phenylacetamide]",Enzyme degradation CDK2 (% remaining) @ 0.1 μM,CDK2,50%
same,Enzyme degradation CDK2 (% remaining) @ 1 μM,CDK2,60%
same,Enzyme degradation CDK2 (% remaining) @ 10 μM,CDK2,70%
same,Enzyme degradation CDK9 (% remaining) @ 0.1 μM,CDK9,0%
same,Enzyme degradation CDK9 (% remaining) @ 1 μM,CDK9,0%
same,Enzyme degradation CDK9 (% remaining) @ 10 μM,CDK9,10%
"O=C1CC[C@H](N2C(=O)c3cc(F)c(N4CCC(C(=O)N5CCC(CCN6CCN(c7ccc(Nc8ncnc9c8ncn9[C@H]8C[C@@H](NC(=O)Cc9ccccc9)C8)cc7)CC6)CC5)CC4)cc3C2=O)C(=O)N1 [Compound 457, N-((1s,3s)-3-(6-((4-(4-(2-(1-(1-(2-(2,6-dioxopiperidin-3-yl)-6-fluoro-1,3-dioxoisoindolin-5-yl)piperidin-4-carbonyl)piperidin-4-yl)ethyl)piperazin-1-yl)phenyl)amino)-9H-purin-9-yl)cyclobutyl)-2-phenylacetamide]",Enzyme degradation CDK2 (% remaining) @ 0.1 μM,CDK2,80%
same,Enzyme degradation CDK2 (% remaining) @ 1 μM,CDK2,60%
same,Enzyme degradation CDK2 (% remaining) @ 10 μM,CDK2,60%
same,Enzyme degradation CDK9 (% remaining) @ 0.1 μM,CDK9,20%
same,Enzyme degradation CDK9 (% remaining) @ 1 μM,CDK9,0%
same,Enzyme degradation CDK9 (% remaining) @ 10 μM,CDK9,0%
"O=C1CC[C@H](N2C(=O)c3cc(F)c(N4CCC(CCCN5CCN(c6ccc(Nc7ncnc8c7ncn8[C@H]7C[C@@H](NC(=O)Cc8ccccc8)C7)cc6)CC5)CC4)cc3C2=O)C(=O)N1 [Compound 458, N-((1s,3s)-3-(6-((4-(4-(3-(1-(2-(2,6-dioxopiperidin-3-yl)-6-fluoro-1,3-dioxoisoindolin-5-yl)piperidin-4-yl)propyl)piperazin-1-yl)phenyl)amino)-9H-purin-9-yl)cyclobutyl)-2-phenylacetamide]",Enzyme degradation CDK2 (% remaining) @ 0.1 μM,CDK2,50/50/50%
same,Enzyme degradation CDK2 (% remaining) @ 1 μM,CDK2,50/50/50%
same,Enzyme degradation CDK2 (% remaining) @ 10 μM,CDK2,50/50/50%
same,Enzyme degradation CDK9 (% remaining) @ 0.1 μM,CDK9,10%
same,Enzyme degradation CDK9 (% remaining) @ 1 μM,CDK9,10%
same,Enzyme degradation CDK9 (% remaining) @ 10 μM,CDK9,20%
"O=C1CC[C@H](N2C(=O)c3cc(F)c(N4CCC(C(=O)N5CCC(CCCN6CCN(c7ccc(Nc8ncnc9c8ncn9[C@H]8C[C@@H](NC(=O)Cc9ccccc9)C8)cc7)CC6)CC5)CC4)cc3C2=O)C(=O)N1 [Compound 459, N-((1s,3s)-3-(6-((4-(4-(3-(1-(1-(2-(2,6-dioxopiperidin-3-yl)-6-fluoro-1,3-dioxoisoindolin-5-yl)piperidin-4-carbonyl)piperidin-4-yl)propyl)piperazin-1-yl)phenyl)amino)-9H-purin-9-yl)cyclobutyl)-2-phenylacetamide]",Enzyme degradation CDK2 (% remaining) @ 0.1 μM,CDK2,50%
same,Enzyme degradation CDK2 (% remaining) @ 1 μM,CDK2,30%
same,Enzyme degradation CDK2 (% remaining) @ 10 μM,CDK2,30%
same,Enzyme degradation CDK9 (% remaining) @ 0.1 μM,CDK9,0/0/0%
same,Enzyme degradation CDK9 (% remaining) @ 1 μM,CDK9,0/0/0%
same,Enzyme degradation CDK9 (% remaining) @ 10 μM,CDK9,0/0/0%
"O=C1CC[C@H](N2C(=O)c3cc(F)c(N4CCC(C(=O)N5CCC6(CC5)CC(N5CCN(c7ccc(Nc8ncnc9c8ncn9C8CC(NC(=O)Cc9ccccc9)C8)cc7)CC5)C6)CC4)cc3C2=O)C(=O)N1 (stereo partly drawn) [Compound 460, N-((1s,3s)-3-(6-((4-(4-(7-(1-(2-(2,6-dioxopiperidin-3-yl)-6-fluoro-1,3-dioxoisoindolin-5-yl)piperidin-4-carbonyl)-7-azaspiro[3.5]nonan-2-yl)piperazin-1-yl)phenyl)amino)-9H-purin-9-yl)cyclobutyl)-2-phenylacetamide]",Enzyme degradation CDK2 (% remaining) @ 0.1 μM,CDK2,40/40/40%
same,Enzyme degradation CDK2 (% remaining) @ 1 μM,CDK2,40/40/40%
same,Enzyme degradation CDK2 (% remaining) @ 10 μM,CDK2,40/40/40%
same,Enzyme degradation CDK9 (% remaining) @ 0.1 μM,CDK9,0/0/0%
same,Enzyme degradation CDK9 (% remaining) @ 1 μM,CDK9,0/0/0%
same,Enzyme degradation CDK9 (% remaining) @ 10 μM,CDK9,0/0/0%
"O=C1CCC(N2C(=O)c3cc(F)c(N4CCC(C(=O)N5CCC(CN6CCC(CCNc7ncnc8c7ncn8[C@H]7C[C@@H](NC(=O)Cc8ccccc8)C7)CC6)CC5)CC4)cc3C2=O)C(=O)N1 (stereo partly drawn) [Compound 461, N-((1s,3s)-3-(6-((2-(1-((1-(1-(2-(2,6-dioxopiperidin-3-yl)-6-fluoro-1,3-dioxoisoindolin-5-yl)piperidin-4-carbonyl)piperidin-4-yl)methyl)piperidin-4-yl)ethyl)amino)-9H-purin-9-yl)cyclobutyl)-2-phenylacetamide]",Enzyme degradation CDK2 (% remaining) @ 0.1 μM,CDK2,70%
same,Enzyme degradation CDK2 (% remaining) @ 1 μM,CDK2,40%
same,Enzyme degradation CDK2 (% remaining) @ 10 μM,CDK2,40%
same,Enzyme degradation CDK9 (% remaining) @ 0.1 μM,CDK9,30%
same,Enzyme degradation CDK9 (% remaining) @ 1 μM,CDK9,0%
same,Enzyme degradation CDK9 (% remaining) @ 10 μM,CDK9,0%

# From patent US20260125382A1, “COMPOUNDS FOR INHIBITING OR DEGRADING CDK2 AND/OR CDK9 AND MEDICINAL USE THEREOF” (KOREA RESEARCH INSTITUTE OF CHEMICAL TECHNOLOGY, priority 2022, published 2026)
